Data: patent US20110195900A1, “PEPTIDIC PTH RECEPTOR AGONISTS” (FERRING B.V., priority 2008, published 2011)
Non-standard residues stand in square brackets, D forms with d. Residues, ends and D or L forms follow the SMILES beside them. 1Nal = N[C@@H](Cc1cccc2ccccc12)C(=O)O; β3hI = CC[C@H](C)[C@H](N)CC(=O)O; Nle = CCCC[C@H](N)C(=O)O; Aib = CC(C)(N)C(=O)O

How the values were obtained:
human PTH-1 receptor = target: T1, human PTH-1 receptor (Homo sapiens, UniProt Q03431); test: Reporter gene assay (CRE-luciferase) for agonist activity in transiently transfected HEK-293 cells; type: cell-based; settings: for hPTHR-2/hPTHR-1: Table 3, selectivity for hPTH-1 receptor over hPTH-2 receptor
T1 construct: expressed in transfected cells; host or cells: HEK-293
T1 sequence (Q03431 27-593): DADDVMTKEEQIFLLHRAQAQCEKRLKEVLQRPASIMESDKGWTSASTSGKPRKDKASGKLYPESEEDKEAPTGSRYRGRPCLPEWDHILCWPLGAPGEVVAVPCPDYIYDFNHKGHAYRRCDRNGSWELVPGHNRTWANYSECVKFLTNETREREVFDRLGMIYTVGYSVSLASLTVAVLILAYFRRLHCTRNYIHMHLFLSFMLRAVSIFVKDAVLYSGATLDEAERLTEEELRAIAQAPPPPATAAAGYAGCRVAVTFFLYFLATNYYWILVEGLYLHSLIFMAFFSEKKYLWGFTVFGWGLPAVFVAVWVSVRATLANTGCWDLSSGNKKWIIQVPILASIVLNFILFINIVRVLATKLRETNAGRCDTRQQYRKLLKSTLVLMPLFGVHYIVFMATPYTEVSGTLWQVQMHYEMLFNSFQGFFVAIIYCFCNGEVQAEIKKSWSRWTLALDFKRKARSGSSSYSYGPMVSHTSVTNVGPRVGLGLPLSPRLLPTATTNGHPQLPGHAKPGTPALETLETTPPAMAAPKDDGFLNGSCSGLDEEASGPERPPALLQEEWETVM
Outline: (§1)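 HEK-293 cells transiently transfected with SV40-driven human PTH-1 receptor and CRE-luciferase reporter, exposed to serial compound dilutions for 4-5 h, then lysed for luciferase readout; efficacy and EC50 by non-linear regression, PTH (1-34) as internal control, n≥3. Selectivity measured in analogous human PTH-2 receptor luciferase reporter assays.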

human PTH-2 receptor = target: T2, human PTH-2 receptor (Homo sapiens, UniProt P49190); test: Luciferase-based transcriptional reporter gene assay for selectivity; type: cell-based
T2 construct: expressed in transfected cells
T2 sequence (P49190 25-550): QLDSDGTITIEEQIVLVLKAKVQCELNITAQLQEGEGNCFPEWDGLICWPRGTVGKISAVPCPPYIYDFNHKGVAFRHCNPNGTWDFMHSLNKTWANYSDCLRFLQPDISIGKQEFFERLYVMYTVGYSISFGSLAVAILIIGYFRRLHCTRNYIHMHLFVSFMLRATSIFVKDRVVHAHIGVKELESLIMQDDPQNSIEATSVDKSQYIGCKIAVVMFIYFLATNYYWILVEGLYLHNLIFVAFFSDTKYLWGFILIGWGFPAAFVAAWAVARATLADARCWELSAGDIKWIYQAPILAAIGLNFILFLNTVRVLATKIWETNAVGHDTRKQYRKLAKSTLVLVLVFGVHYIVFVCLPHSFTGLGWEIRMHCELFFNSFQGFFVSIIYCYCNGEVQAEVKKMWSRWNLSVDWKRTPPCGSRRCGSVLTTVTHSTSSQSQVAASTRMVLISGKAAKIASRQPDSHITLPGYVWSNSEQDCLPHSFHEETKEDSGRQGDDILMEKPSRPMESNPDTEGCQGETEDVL
Outline: as §1

| SMILES | hPTHR-2/hPTHR-1 (human PTH-1 receptor; ratio of EC50 values) | EC50 (human PTH-2 receptor) [nM] | EC50 (human PTH-1 receptor) [nM] | Selectivity hPTHR-2/hPTHR-1 (human PTH-1 receptor; Table 4 comparison data, ratio of EC50 values) |
| --- | --- | --- | --- | --- |
| CCCC[C@H](NC(=O)[C@H](CC(C)C)NC(=O)[C@H](CCC(N)=O)NC(=O)[C@@H](NC(=O)[C@H](CCC(=O)O)NC(=O)[C@H](CO)NC(=O)[C@@H](NC(=O)[C@@H](N)CO)C(C)C)[C@@H](C)CC)C(=O)N[C@@H](Cc1c[nH]cn1)C(=O)N[C@@H](CC(N)=O)C(=O)N[C@@H](CC(C)C)C(=O)NC(C)(C)C(=O)N[C@@H](CCCCN)C(=O)N[C@@H](Cc1c[nH]cn1)C(=O)N[C@@H](CC(C)C)C(=O)N[C@@H](CC(N)=O)C(=O)N[C@@H](CO)C(=O)N[C@H](CC(=O)N[C@@H](CCC(=O)O)C(=O)N[C@@H](CCCNC(=N)N)C(=O)N[C@H](C(=O)N[C@@H](CCC(=O)O)C(=O)N[C@@H](Cc1cccc2ccccc12)C(=O)N[C@@H](CC(C)C)C(=O)N[C@@H](CCCNC(=N)N)C(=O)N[C@@H](CCCCN)C(=O)N[C@@H](CC(C)C)C(=O)N[C@@H](CC(C)C)C(=O)N[C@@H](CCC(N)=O)C(=O)N[C@@H](CC(=O)O)C(=O)N[C@H](C(=O)N[C@@H](Cc1c[nH]cn1)C(=O)N[C@@H](CC(N)=O)C(=O)N[C@@H](Cc1ccccc1)C(N)=O)C(C)C)C(C)C)[C@@H](C)CC [SEQ ID NO: 32, [Nle^8, Aib^12, β-hIle^18,1-Nal^23, Leu^27] hPTH (1-34)-NH2] (H-SVSEIQL[Nle]HNL[Aib]KHLNS[β3hI]ERVE[1Nal]LRKLLQDVHNF-NH2) | 55 | 13 | – | – |
| CCCC[C@H](NC(=O)[C@H](CC(C)C)NC(=O)[C@H](CCC(N)=O)NC(=O)[C@@H](NC(=O)[C@H](CCC(=O)O)NC(=O)[C@H](CO)NC(=O)[C@@H](NC(=O)[C@@H](N)CO)C(C)C)[C@@H](C)CC)C(=O)N[C@@H](Cc1c[nH]cn1)C(=O)N[C@@H](CC(N)=O)C(=O)N[C@@H](CC(C)C)C(=O)NCC(=O)N[C@@H](CCCCN)C(=O)N[C@@H](Cc1c[nH]cn1)C(=O)N[C@@H](CC(C)C)C(=O)N[C@@H](CC(N)=O)C(=O)N[C@@H](CO)C(=O)N[C@H](CC(=O)N[C@@H](CCC(=O)O)C(=O)N[C@@H](CCCNC(=N)N)C(=O)N[C@H](C(=O)N[C@@H](CCC(=O)O)C(=O)N[C@@H](Cc1cccc2ccccc12)C(=O)N[C@@H](CC(C)C)C(=O)N[C@@H](CCCNC(=N)N)C(=O)N[C@@H](CCCCN)C(=O)N[C@@H](CC(C)C)C(=O)N[C@@H](CC(C)C)C(=O)N[C@@H](CCC(N)=O)C(=O)N[C@@H](CCCNC(=N)N)C(=O)N[C@H](C(=O)N[C@@H](Cc1c[nH]cn1)C(=O)N[C@@H](CC(N)=O)C(=O)N[C@@H](Cc1ccccc1)C(N)=O)C(C)C)C(C)C)[C@@H](C)CC [SEQ ID NO: 35, [Nle^8, β-hIle^18,1-Nal^23, Leu^27, Arg^30] hPTH (1-34)-NH2] (H-SVSEIQL[Nle]HNLGKHLNS[β3hI]ERVE[1Nal]LRKLLQRVHNF-NH2; N-terminus assumed) | 40 | 7 | 0.18 | – |
| CCCC[C@H](NC(=O)[C@H](CC(C)C)NC(=O)[C@H](CCC(N)=O)NC(=O)[C@@H](NC(=O)[C@H](CCC(=O)O)NC(=O)[C@H](CO)NC(=O)[C@@H](NC(=O)C(C)(C)N)C(C)C)[C@@H](C)CC)C(=O)N[C@@H](Cc1c[nH]cn1)C(=O)N[C@@H](CC(N)=O)C(=O)N[C@@H](CC(C)C)C(=O)NCC(=O)N[C@@H](CCCCN)C(=O)N[C@@H](Cc1c[nH]cn1)C(=O)N[C@@H](CC(C)C)C(=O)N[C@@H](CC(N)=O)C(=O)N[C@@H](CO)C(=O)N[C@H](CC(=O)N[C@@H](CCC(=O)O)C(=O)N[C@@H](CCCNC(=N)N)C(=O)N[C@H](C(=O)N[C@@H](CCC(=O)O)C(=O)N[C@@H](Cc1cccc2ccccc12)C(=O)N[C@@H](CC(C)C)C(=O)N[C@@H](CCCNC(=N)N)C(=O)N[C@@H](CCCCN)C(=O)N[C@@H](CC(C)C)C(=O)N[C@@H](CC(C)C)C(=O)N[C@@H](CCC(N)=O)C(=O)N[C@@H](CC(=O)O)C(=O)N[C@H](C(=O)N[C@@H](Cc1c[nH]cn1)C(=O)N[C@@H](CC(N)=O)C(=O)N[C@@H](Cc1ccccc1)C(N)=O)C(C)C)C(C)C)[C@@H](C)CC [SEQ ID NO: 36, [Aib^1, Nle^8, β-hIle^18,1-Nal^23, Leu^27] hPTH (1-34)-NH2] (H-[Aib]VSEIQL[Nle]HNLGKHLNS[β3hI]ERVE[1Nal]LRKLLQDVHNF-NH2) | 372 | 16 | 0.04 | 372 |
| CCCC[C@H](NC(=O)[C@H](CC(C)C)NC(=O)[C@H](CCC(N)=O)NC(=O)[C@@H](NC(=O)[C@H](CCC(=O)O)NC(=O)[C@H](CO)NC(=O)[C@@H](NC(=O)[C@@H](N)CO)C(C)C)[C@@H](C)CC)C(=O)N[C@@H](Cc1c[nH]cn1)C(=O)N[C@@H](CC(N)=O)C(=O)N[C@@H](CC(C)C)C(=O)NCC(=O)N[C@@H](CCCCN)C(=O)N[C@@H](Cc1c[nH]cn1)C(=O)N[C@@H](CC(C)C)C(=O)N[C@@H](CCCCN)C(=O)N[C@@H](CO)C(=O)N[C@H](CC(=O)N[C@@H](CCC(=O)O)C(=O)N[C@@H](CCCNC(=N)N)C(=O)N[C@H](C(=O)N[C@@H](CCC(=O)O)C(=O)N[C@@H](Cc1cccc2ccccc12)C(=O)N[C@@H](CC(C)C)C(=O)N[C@@H](CCCNC(=N)N)C(=O)N[C@@H](CCCCN)C(=O)N[C@@H](CC(C)C)C(=O)N[C@@H](CC(C)C)C(=O)N[C@@H](CCC(N)=O)C(=O)N[C@@H](CCCNC(=N)N)C(=O)N[C@H](C(=O)N[C@@H](Cc1c[nH]cn1)C(=O)N[C@@H](CC(N)=O)C(=O)N[C@@H](Cc1ccccc1)C(N)=O)C(C)C)C(C)C)[C@@H](C)CC [SEQ ID NO: 37, [Nle^8, Lys^16, β-hIle^18,1-Nal^23, Leu^27, Arg^30] hPTH (1-34)-NH2] (H-SVSEIQL[Nle]HNLGKHLKS[β3hI]ERVE[1Nal]LRKLLQRVHNF-NH2) | 97 | 14 | 0.14 | – |
| CCCC[C@H](NC(=O)[C@H](CC(C)C)NC(=O)[C@H](CCC(N)=O)NC(=O)[C@@H](NC(=O)[C@H](CCC(=O)O)NC(=O)[C@H](CO)NC(=O)[C@@H](NC(=O)C(C)(C)N)C(C)C)[C@@H](C)CC)C(=O)N[C@@H](Cc1c[nH]cn1)C(=O)N[C@@H](CO)C(=O)N[C@@H](CC(C)C)C(=O)NCC(=O)N[C@@H](CCCCN)C(=O)N[C@@H](Cc1c[nH]cn1)C(=O)N[C@@H](CC(C)C)C(=O)N[C@@H](CCCCN)C(=O)N[C@@H](CO)C(=O)N[C@H](CC(=O)N[C@@H](CCC(=O)O)C(=O)N[C@@H](CCCNC(=N)N)C(=O)N[C@H](C(=O)N[C@@H](CCC(=O)O)C(=O)N[C@@H](Cc1cccc2ccccc12)C(=O)N[C@@H](CC(C)C)C(=O)N[C@@H](CCCNC(=N)N)C(=O)N[C@@H](CCCCN)C(=O)N[C@@H](CC(C)C)C(=O)N[C@@H](CC(C)C)C(=O)N[C@@H](CCC(N)=O)C(=O)N[C@@H](CCCNC(=N)N)C(=O)N[C@H](C(=O)N[C@@H](Cc1c[nH]cn1)C(=O)N[C@@H](CCC(=O)O)C(=O)N[C@@H](Cc1ccccc1)C(N)=O)C(C)C)C(C)C)[C@@H](C)CC [SEQ ID NO: 38, [Aib^1, Nle^8, Ser^10, Lys^16, β-hIle^18,1-Nal^23, Leu^27, Arg^30, Glu^33] hPTH (1-34)-NH2] (H-[Aib]VSEIQL[Nle]HSLGKHLKS[β3hI]ERVE[1Nal]LRKLLQRVHEF-NH2) | 61 | 6 | 0.09 | – |
| CCCC[C@H](NC(=O)[C@H](CC(C)C)NC(=O)[C@H](CCC(N)=O)NC(=O)[C@@H](NC(=O)[C@H](CCC(=O)O)NC(=O)[C@H](CO)NC(=O)[C@@H](NC(=O)C(C)(C)N)C(C)C)[C@@H](C)CC)C(=O)N[C@@H](Cc1c[nH]cn1)C(=O)N[C@@H](CC(N)=O)C(=O)N[C@@H](CC(C)C)C(=O)NCC(=O)N[C@@H](CCCCN)C(=O)N[C@@H](Cc1c[nH]cn1)C(=O)N[C@@H](CC(C)C)C(=O)N[C@@H](CCCCN)C(=O)N[C@@H](CO)C(=O)N[C@H](CC(=O)N[C@@H](CCC(=O)O)C(=O)N[C@@H](CCCNC(=N)N)C(=O)N[C@H](C(=O)N[C@@H](CCC(=O)O)C(=O)N[C@@H](Cc1cccc2ccccc12)C(=O)N[C@@H](CC(C)C)C(=O)N[C@@H](CCCNC(=N)N)C(=O)N[C@@H](CCCCN)C(=O)N[C@@H](CC(C)C)C(=O)N[C@@H](CC(C)C)C(=O)N[C@@H](CCC(N)=O)C(=O)N[C@@H](CCCNC(=N)N)C(=O)N[C@H](C(=O)N[C@@H](Cc1c[nH]cn1)C(=O)N[C@@H](CCC(=O)O)C(=O)N[C@@H](Cc1ccccc1)C(N)=O)C(C)C)C(C)C)[C@@H](C)CC [SEQ ID NO: 39, [Aib^1, Nle^8, Lys^16, β-hIle^18,1-Nal^23, Leu^27, Arg^30, Glu^33] hPTH (1-34)-NH2] (H-[Aib]VSEIQL[Nle]HNLGKHLKS[β3hI]ERVE[1Nal]LRKLLQRVHEF-NH2; N-terminus assumed) | 61 | 6 | 0.09 | – |
